Reference: publication PMC8612954 (Chemosphere, 2021)
Read-outs that look alike come from different tables or passages of the source.

Columns and labels:
[1] = molecular target: T1, bovine serum albumin (BSA) (Bos taurus, UniProt P02769); experiment: Equilibrium dialysis; type: binding; conditions: for f (fraction of bound PFAS) / KPW (protein/water partition coefficient): 37°C, standard error in parentheses; for f (fraction of bound PFAS): 10 µM BSA in PBS
[2] = molecular target: T1, bovine serum albumin (BSA); conditions: ref Allendorf et al. (2019), cited from earlier work; for Ka (association constant): PFAS-BSA binding
[3] = molecular target: T1, bovine serum albumin (BSA); experiment: Fluorescence quenching of BSA by PFAS; type: binding; conditions: for nHill (Hill coefficient, binding cooperativity): Hill model fit, 25°C and 35°C, independent of temperature; for shift in wavelength of maximum fluorescence emission of BSA: maximum shift on PFAS binding (Figure S5)
serum albumin = conditions: ref Bischel et al. (2011); cited from earlier work

T1 sequence (P02769 25-607): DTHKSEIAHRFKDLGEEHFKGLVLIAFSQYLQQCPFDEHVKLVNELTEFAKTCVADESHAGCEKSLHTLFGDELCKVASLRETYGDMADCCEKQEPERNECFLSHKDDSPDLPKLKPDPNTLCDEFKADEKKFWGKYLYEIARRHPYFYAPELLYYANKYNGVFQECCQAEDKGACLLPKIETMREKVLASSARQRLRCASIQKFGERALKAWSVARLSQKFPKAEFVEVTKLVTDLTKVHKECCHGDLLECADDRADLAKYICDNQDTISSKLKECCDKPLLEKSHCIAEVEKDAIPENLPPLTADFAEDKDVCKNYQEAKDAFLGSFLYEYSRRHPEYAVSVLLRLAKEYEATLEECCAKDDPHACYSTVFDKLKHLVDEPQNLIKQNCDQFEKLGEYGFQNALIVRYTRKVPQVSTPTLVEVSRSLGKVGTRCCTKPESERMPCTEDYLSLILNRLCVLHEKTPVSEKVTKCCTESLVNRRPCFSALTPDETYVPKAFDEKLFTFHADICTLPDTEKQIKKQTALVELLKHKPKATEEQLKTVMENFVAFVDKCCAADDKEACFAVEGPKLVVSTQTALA

SMILES: O=C(O)C(F)(OC(F)(F)C(F)(F)C(F)(F)F)C(F)(F)F (stereo not shown) [Gen X, 2,3,3,3-tetrafluoro-2-(heptafluoropropoxy)propanoate]
- f (fraction of bound PFAS) [1]: 0.265 (0.006)
- KPW (protein/water partition coefficient) ([1]; PFAS:BSA molar ratio 2:1): 0.07 (0.002) 10^5
- Ka (association constant) [2]: 0.23 (0.05) 10^5 M^−1
- nHill (Hill coefficient, binding cooperativity) [3]: noncooperative
- shift in wavelength of maximum fluorescence emission of BSA [3]: do not show marked shifts

SMILES: O=S(=O)(O)C(F)(F)C(F)(F)C(F)(F)C(F)(F)F [PFBS, perfluorobutanesulfonic acid]
- f (fraction of bound PFAS) [1]: 0.249 (0.064)
- KPW (protein/water partition coefficient) ([1]; PFAS:BSA molar ratio 2:1): 0.07 (0.02) 10^5
- f (fraction of bound PFAS) (serum albumin): ≥ 0.99
- Ka (association constant) [2]: 1.1 (0.28) 10^5 M^−1
- f (fraction of bound PFAS) [2]: 0.44
- fa (fractional accessibility, modified Stern-Volmer equation) ([3]; 1.25 µM BSA, pH 7.4 PBS, values from Table S3): ~ 0.3
- nHill (Hill coefficient, binding cooperativity) [3]: < 1
- shift in wavelength of maximum fluorescence emission of BSA [3]: do not show marked shifts

SMILES: O=C(O)C(F)(F)C(F)(F)C(F)(F)C(F)(F)C(F)(F)C(F)(F)C(F)(F)C(F)(F)C(F)(F)F [PFDA, perfluorodecanoic acid]
- f (fraction of bound PFAS) [1]: 0.983 (0.004)
- KPW (protein/water partition coefficient) ([1]; PFAS:BSA molar ratio 0.1:1): 12.66 (3.23) 10^5
- Ka (association constant) [2]: 36 (3.1) 10^5 M^−1
- nHill (Hill coefficient, binding cooperativity) [3]: < 1
- shift in wavelength of maximum fluorescence emission of BSA [3]: −10 nm

SMILES: O=S(=O)(O)C(F)(F)C(F)(F)C(F)(F)C(F)(F)C(F)(F)C(F)(F)F [PFHxS, perfluorohexanesulfonic acid]
- Kd [1]: 1.54 µM
- f (fraction of bound PFAS) [1]: 0.842 (0.008)
- KPW (protein/water partition coefficient) ([1]; PFAS:BSA molar ratio 0.1:1): 1.11 (0.06) 10^5
- f (fraction of bound PFAS) (serum albumin): ≥ 0.99
- Ka (association constant) [2]: 44 (3.5) 10^5 M^−1
- f (fraction of bound PFAS) [2]: 0.62
- nHill (Hill coefficient, binding cooperativity) [3]: positive binding cooperativity
- shift in wavelength of maximum fluorescence emission of BSA [3]: −10 nm

SMILES: O=C(O)C(F)(F)C(F)(F)C(F)(F)C(F)(F)C(F)(F)C(F)(F)C(F)(F)C(F)(F)F [PFNA, perfluorononanoic acid]
- f (fraction of bound PFAS) [1]: 0.975 (0.005)
- KPW (protein/water partition coefficient) ([1]; PFAS:BSA molar ratio 0.1:1): 8.52 (1.62) 10^5
- Ka (association constant) [2]: 14 (2.2) 10^5 M^−1
- nHill (Hill coefficient, binding cooperativity) [3]: noncooperative
- shift in wavelength of maximum fluorescence emission of BSA [3]: −13 nm

SMILES: O=C(O)C(F)(F)C(F)(F)C(F)(F)C(F)(F)C(F)(F)C(F)(F)C(F)(F)F [PFOA, perfluorooctanoic acid]
- Kd [1]: 2.65 µM
- f (fraction of bound PFAS) [1]: 0.755 (0.038)
- KPW (protein/water partition coefficient) ([1]; PFAS:BSA molar ratio 0.1:1): 0.66 (0.13) 10^5
- f (fraction of bound PFAS) (serum albumin): ≥ 0.99
- Ka (association constant) [2]: 11 (1.1) 10^5 M^−1
- f (fraction of bound PFAS) [2]: 0.44
- nHill (Hill coefficient, binding cooperativity) [3]: positive binding cooperativity

SMILES: O=S(=O)(O)C(F)(F)C(F)(F)C(F)(F)C(F)(F)C(F)(F)C(F)(F)C(F)(F)C(F)(F)F [PFOS, perfluorooctanesulfonic acid]
- f (fraction of bound PFAS) [1]: 0.942 (0.004)
- KPW (protein/water partition coefficient) ([1]; PFAS:BSA molar ratio 0.1:1): 3.39 (0.27) 10^5
- Ka (association constant) [2]: 32 (4.9) 10^5 M^−1
- nHill (Hill coefficient, binding cooperativity) [3]: positive binding cooperativity
- shift in wavelength of maximum fluorescence emission of BSA [3]: −7 nm
